Data from PubChem BioAssay AID2060897 (Molecular Pharmacology Branch, DTP, NCI, 2025).

Tested on: 966289-007-R4-J1-PDC complex spheroid viability
Experiment: Anticancer human tumor 966289-007-R4-J1-PDC patient-derived pancreatic adenocarcinoma cell line growth inhibition [RAS]
Settings: for IC50: curve of first compound; for viability, T/C: stronger effect = lower value
Method in brief: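 Agents were tested in combination matrices in half-log decrements from a top concentration at or near clinical Cmax (10 microM if undetermined). Targets were multi-cell spheroids of tumour lines plus HUVEC and MSC stromal cells.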
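Note: spheroids exposed to agents for one week before readout.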
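Throughout, for viability, T/C: percent viability relative to DMSO vehicle control wells as 100%.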

In the case of CC(C)NCC(C(=O)N1CCN(c2ncnc3c2C(C)CC3O)CC1)c1ccc(Cl)cc1 (configuration not stated) + CCn1c(-c2cccnc2C(C)OC)c2c3cc(ccc31)N1CCOC(CC(NC(=O)C(C(C)C)N(C)C(=O)C3(F)CCN(C(=O)C#CC(C)(C)N(C)C)CC3)C(=O)N3CCCC(N3)C(=O)OCC(C)(C)C2)C1, the IC50 (second compound 0.000949 µM) is reported as 2.76 µM, the IC50 (second compound 0.003 µM) is reported as 4.85 µM and the IC50 (second compound 0.00949 µM) is reported as 5.11 µM. The IC50 (second compound 0.03 µM) was 6.16 µM, the IC50 (second compound 0.0949 µM) was 6.64 µM and the IC50 (second compound 0.3 µM) was 5.35 µM. It also gave a viability, T/C (second compound 0.000949 µM, first compound 0.0316 µM) of 99.4%, a viability, T/C (second compound 0.000949 µM, first compound 0.1 µM) of 94.4% and a viability, T/C (second compound 0.000949 µM, first compound 0.316 µM) of 117%. The viability, T/C (second compound 0.000949 µM, first compound 1 µM) was 85.7%, the viability, T/C (second compound 0.000949 µM, first compound 3.16 µM) was 46.3% and the viability, T/C (second compound 0.000949 µM, first compound 10 µM) was 28.5%. It also gave a viability, T/C (second compound 0.003 µM, first compound 0.0316 µM) of 99.2%, a viability, T/C (second compound 0.003 µM, first compound 0.1 µM) of 82.3% and a viability, T/C (second compound 0.003 µM, first compound 0.316 µM) of 98.9%. The viability, T/C (second compound 0.003 µM, first compound 1 µM) was 94.6%, the viability, T/C (second compound 0.003 µM, first compound 3.16 µM) was 62.2% and the viability, T/C (second compound 0.003 µM, first compound 10 µM) was 29.4%. It also gave a viability, T/C (second compound 0.00949 µM, first compound 0.0316 µM) of 70.3%, a viability, T/C (second compound 0.00949 µM, first compound 0.1 µM) of 89.2% and a viability, T/C (second compound 0.00949 µM, first compound 0.316 µM) of 97.2%. For the same molecule, the viability, T/C (second compound 0.00949 µM, first compound 1 µM) was 114%, the viability, T/C (second compound 0.00949 µM, first compound 3.16 µM) was 62% and the viability, T/C (second compound 0.00949 µM, first compound 10 µM) was 33.2%. The viability, T/C (second compound 0.03 µM, first compound 0.0316 µM) was 57.3%, the viability, T/C (second compound 0.03 µM, first compound 0.1 µM) was 72.6% and the viability, T/C (second compound 0.03 µM, first compound 0.316 µM) was 103%. It also gave a viability, T/C (second compound 0.03 µM, first compound 1 µM) of 92.4%, a viability, T/C (second compound 0.03 µM, first compound 3.16 µM) of 62.3% and a viability, T/C (second compound 0.03 µM, first compound 10 µM) of 41.1%. For the same molecule, the viability, T/C (second compound 0.0949 µM, first compound 0.0316 µM) was 63.9%, the viability, T/C (second compound 0.0949 µM, first compound 0.1 µM) was 94.5% and the viability, T/C (second compound 0.0949 µM, first compound 0.316 µM) was 126%. The viability, T/C (second compound 0.0949 µM, first compound 1 µM) was 90.8%, the viability, T/C (second compound 0.0949 µM, first compound 3.16 µM) was 75.6% and the viability, T/C (second compound 0.0949 µM, first compound 10 µM) was 35.9%. The viability, T/C (second compound 0.3 µM, first compound 0.0316 µM) was 92.5%, the viability, T/C (second compound 0.3 µM, first compound 0.1 µM) was 97% and the viability, T/C (second compound 0.3 µM, first compound 0.316 µM) was 107%. It also gave a viability, T/C (second compound 0.3 µM, first compound 1 µM) of 99.9%, a viability, T/C (second compound 0.3 µM, first compound 3.16 µM) of 58% and a viability, T/C (second compound 0.3 µM, first compound 10 µM) of 40.4%.
